Source: US9797907B2, “Isolation, detection, diagnosis and/or characterization of circulating Trop-2-positive cancer cells” (Immunomedics, Inc., priority 2015, dated 2017)
“And” between values parts separate entries of the source, which are not always exact repeats. Identical values can stand only once.

Columns and labels:
[1] = tested on: patients with diverse metastatic cancers; assay: Phase I / phase II extension clinical trial of IMMU-132: best response, time to progression, case reports; type: in vivo, human
Procedure: In a 3+3 trial design, IMMU-132 was given on days 1 and 8 in repeated 21-day cycles, starting at 8 mg/kg/dose, then 12 and 18 mg/kg before dose-limiting neutropenia. To optimize cumulative treatment with minimal delays, phase II is focusing on 8 and 10 mg/kg (n=30 and 14, respectively). […] In the Phase I and the expansion phases, there are now 48 pts (excluding PDC) who are assessable by RECIST/CT for best response.
A total of 69 patients (including 25 patients in Phase I) with diverse metastatic cancers having a median of 3 prior therapies were reported. Eight patients had clinical progression and withdrew before CT assessment. Thirteen CT-assessable pancreatic cancer patients were separately reported.
A total of 48 patients with diverse cancers had at least 1 CT-assessment from which Best Response (not shown) and Time to Progression (TTP; not shown) were determined.

[2] = molecular target: DDD of the RII form of PKA (Homo sapiens, UniProt P13861); settings: Alto et al. 2003; read-out: binding constant for DDD; cited from earlier work
DDD of the RII form of PKA, sequence (P13861 2-45 limits assumed): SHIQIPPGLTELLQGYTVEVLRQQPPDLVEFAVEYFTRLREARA

RII isoform of PKA = RII isoform of PKA (Homo sapiens, UniProt P13861); settings: Gold et al. 2006; cited from earlier work
RII isoform of PKA, sequence (P13861 whole entry, canonical isoform): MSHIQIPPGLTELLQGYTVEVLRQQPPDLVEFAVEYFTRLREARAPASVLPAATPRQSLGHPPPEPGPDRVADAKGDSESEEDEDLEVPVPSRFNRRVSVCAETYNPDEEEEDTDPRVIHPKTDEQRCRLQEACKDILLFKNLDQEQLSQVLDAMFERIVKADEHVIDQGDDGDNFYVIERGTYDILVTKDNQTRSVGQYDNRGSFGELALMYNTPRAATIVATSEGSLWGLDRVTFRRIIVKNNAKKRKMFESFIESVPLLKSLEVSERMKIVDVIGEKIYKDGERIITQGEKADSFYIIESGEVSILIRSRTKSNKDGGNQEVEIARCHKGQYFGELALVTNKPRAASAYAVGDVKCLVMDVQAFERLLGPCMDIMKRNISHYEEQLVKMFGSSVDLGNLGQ

[3] = tested on: stage IIIB NSCLC (squamous cell carcinoma); assay: Example 10: treatment of NSCLC patient after detection of Trop-2+ CTCs; type: in vivo, human; settings: person
Procedure: A […]® system and Circulating Tumor Cell Kit are obtained Veridex LLC (Raritan, N.J.). A 7.5 ml blood sample is collected from a person with suspected NSCLC and stored in a CellSave tube (Veridex LLC). The anti-Trop-2 hRS7 antibody is substituted for the anti-EpCAM antibody provided with the […]® kit. The blood sample is mixed with magnetic nanoparticles conjugated to anti-Trop-2 antibody. Cells are stained with fluorescently labeled anti-CD45 and anti-CK antibodies and cell nuclei are fluorescently labeled with DAPI nuclear dye. A strong magnetic field is generated in the […]® system and used to separate cells bound to the magnetic nanoparticles, which are then analyzed by FISH to determine Trop-2 copy number, as described in Example 7 above.
Initial treatment of caboplatin/etoposide (3 mo) in concert with 7000 cGy XRT results in a response lasting 10 mo. The patient is then started on Tarceva maintenance therapy, which they continue until they were considered for IMMU-132 (hRS7-CL2A-SN-38) trial, in addition to undergoing a lumbar laminectomy. They receive the first dose of IMMU-132 after 5 months of Tarceva, presenting at the time with a 5.6-cm lesion in the right lung with abundant pleural effusion.

[4] = Clinical pharmacokinetics of IMMU-132 in serum (ELISA, HPLC of SN-38); type: in vivo, human
Procedure: Two ELISA methods were used to measure the clearance of the IgG (capture with anti-hRS7 idiotype antibody) and the intact conjugate (capture with anti-SN-38 IgG/probe with anti-hRS7 idiotype antibody). SN-38 was measured by HPLC.

[5] = Phase I/II clinical trial of IMMU-132: related adverse events and dose reductions; type: in vivo, human
[6] = human, in vivo
[7] = In vivo animal studies of SN-38 release from conjugate
[8] = tested on: Capan-1 human pancreatic tumor xenografts; assay: SN-38 delivery to tumor in nude mice bearing Capan-1 xenografts; type: in vivo
Text: The present Example reports results from a phase I clinical trial and ongoing phase II extension with IMMU-132 (sacituzumab govitecan), an antibody-drug conjugate (ADC) of the internalizing, humanized, hRS7 anti-Trop-2 antibody conjugated by a pH-sensitive linker to SN-38 (mean drug-antibody ratio=7.6). Trop-2 is a type I transmembrane, calcium-transducing, protein expressed at high density (˜1×10^5), frequency, and specificity by many human carcinomas, with limited normal tissue expression.

[9] = irinotecan 125 mg/m^2 weekly×4, Q6W; cited from earlier work
[10] = starting dose 8 or 10 mg/kg, N = 123 patients
[11] = 48 pts (excluding PDC) assessable by RECIST/CT
[12] = all patients treated, 48 assessable
[13] = esophageal cancer, 4 assessable patients

CC[C@@]1(O)C(=O)OCc2c1cc1n(c2=O)Cc2cc3c(CN(C)C)c(O)ccc3nc2-1 [topotecan, reference compound]
response to prior therapy ([1]; person with SCLC, therapy ended after 2 months): no response

QIEYLAKQIVDNAIQQA [AKAP-IS]
Kd [2]: 400 pM

QIEYVAKQIVDYAIHQA [SuperAKAP-IS]
selectivity for the RII isoform of PKA compared with the RI isoform (RII isoform of PKA): five order of magnitude higher selectivity

IMMU-132
Trop-2+ CTC number following treatment ([3]; NSCLC, periodic assays): substantial reduction | primary target lesion size at first CT ([3]; stage IIIB NSCLC, after 6th dose, 5.6-cm lesion at start): 3.2 cm | clearance of total IMMU-132 fraction (intact conjugate) vs IgG ([4]; ELISA): cleared more quickly than the IgG | SN-38 in the serum bound to the IgG ([4]; HPLC, unbound and total SN-38, non-glucoronidated form): > 95% | serum SN-38 concentration relative to SN-38 reported in patients given irinotecan ([4]; human, in vivo): ≤ 100 fold | time for conjugate to clear from the serum ([4]; patients): ≤ 3 days | concentrations of SN-38G ([4]; serum, HPLC): Low concentrations | alopecia ([5]; human, in vivo): 40% | diarrhea ([5]; human, in vivo): 47% | diarrhea ≧G3 ([5]; human, in vivo): 9% | fatigue ([5]; human, in vivo): 55% | fatigue ≧G3 ([5]; human, in vivo): 9% | nausea ([5]; human, in vivo): 53% | nausea ≧G3 ([5]; human, in vivo): 0% | neutropenia G4 ([5]; human, in vivo): 4% | neutropenia ≧G3 ([5]; human, in vivo): 28% | vomiting ([5]; human, in vivo): 32% | vomiting ≧G3 ([5]; human, in vivo): 2% | patients provided with a dose reduction ([5]; human, in vivo, 8 mg/kg): 16% | patients provided with a dose reduction ([5]; human, in vivo, 10 mg/kg): 15% | patients provided with a dose reduction ([5]; human, in vivo, 12 mg/kg): 67% | patients provided with a dose reduction ([5]; human, in vivo, 18 mg/kg): 100% | Urinary Tract Infection, Grade 3 [5, 10]: 1 (1%) patients (%) | Urinary Tract Infection, Grade 4 [5, 10]: 0 patients (%) | anti-hRS7 or anti-SN-38 antibodies [6]: No anti-hRS7 or anti-SN-38 antibodies were detected | antibody response to IMMU-132 [6]: no evidence of an antibody response | SN-38 released daily [7]: 50% | SN-38 delivered to tumor relative to maximally tolerated irinotecan therapy [8]: ≤ 136 fold | PDC patients with SD ([1]; 13 CT-assessable PDC pts): 62% | median time to progression (TTP) in PDC patients ([1]; 13 CT-assessable pancreatic cancer patients, 8 wks in last prior therapy): 12.7 wks and 11.9 wks | patients with disease response (total) [1, 11]: 79% | patients with partial response (PR) [1, 11]: 15% | TTP for the remaining 48 pts ([1]; 48 pts excluding PDC): ≥ 12.6 wks | total response [PR+SD] ([1]; CRC, 12/18): 67% | PD ([1]; CRC, 18 assessable patients): 6 patients | PR ([1]; CRC, 18 assessable patients): 1 patients | clinical benefit ratio (CR+PR+(SD≧4 mo)]) ([1]; EAC, 16 assessable patients): 44% | objective response ([1]; EAC, 16 assessable patients (2 patients)): 13% | disease control ([1]; EAC, 16 assessable patients (9 patients)): 56% | PD ([1]; NSCLC, 5 assessable patients): 1 patients | PR ([1]; NSCLC, 5 assessable patients): 1 patients | clinical benefit ratio (CR+PR+(SD≧4 mo)]) ([1]; NSCLC, 19 assessable patients): 59% | objective response ([1]; NSCLC, 19 assessable patients (6 patients)): 32% | disease control ([1]; NSCLC, 19 assessable patients (14 patients)): 74% | total response [PR+SD] ([1]; NSCLC, ⅘): 80% | total response [PR+SD] ([1]; SCLC, 2/4): 50% | PD ([1]; SCLC, 4 assessable patients): 2 patients | PR ([1]; SCLC, 4 assessable patients): 2 patients | clinical benefit ratio (CR+PR+(SD≧4 mo)]) ([1]; SCLC, 20 assessable patients): 55% | clinical benefit ratio (CR+PR+(SD≧6 mo)]) ([1]; SCLC, 20 assessable patients): 37% | objective response ([1]; SCLC, 20 assessable patients (6 patients)): 30% | disease control ([1]; SCLC, 20 assessable patients (11 patients)): 55% | total response [PR+SD] ([1]; TNBC, 6/8): 75% | PD (progressive disease) ([1]; TNBC, 8 assessable patients): 2 patients | PR (partial response) ([1]; TNBC, 8 assessable patients): 2 patients | clinical benefit ratio (CR+PR+(SD≧4 mo)]) ([1]; TNBC, 46 assessable patients): 63% | clinical benefit ratio (CR+PR+(SD≧6 mo)]) ([1]; TNBC, 46 assessable patients): 46% | objective response ([1]; TNBC, 46 assessable patients (12 patients)): 26% | disease control ([1]; TNBC, 46 assessable patients (34 patients)): 74% | total response [PR+SD] ([1]; all patients treated, 34/48): 71% | PD [1, 12]: 14 patients | PR [1, 12]: 7 patients | PD [1, 13]: 1 patients | PR [1, 13]: 1 patients | total response [PR+SD] ([1]; esophageal cancer, ¾): 75% | maximum reduction in target lesions ([1]; person with CRC, after 10 months of treatment): 65% | CEA after treatment ([1]; person with CRC, decrease from 781 ng/mL): 26.5 ng/mL | reduction in target lesions at first CT assessment ([1]; person with CRC, starting dose 8 mg/kg): 37% | reduction in target lesions ([1]; person with SCLC, 12 mg/kg reduced to 6.8 mg/kg, after two months): 38% | primary target lesion size at first CT ([1]; person, stage IIIB NSCLC, after 6th dose, 5.6 cm lesion at start): 3.2 cm

CCc1c2c(nc3ccc(OC(=O)N4CCC(N5CCCCC5)CC4)cc13)-c1cc3c(c(=O)n1C2)COC(=O)[C@]3(O)CC [irinotecan]
incidence of grade ¾ diarrhea [9]: 38% | incidence of neutropenia [9]: 31% | incidence of neutropenic fever/infection [9]: 8%
